pIC50: −log10 of the molar value.

For one test, the system named is KM12 Cliff (G595R) cell line. The test can be described thus: NTRK G595R mutant cellular assay (CellTiter-Glo growth inhibition). Particulars: Homo sapiens, KM12, 72 h, 72 hr, CellTiter-Glo. Type of test: cell-based. The method, then: (§1) NTRK Wild Type and G595R Mutant Cellular Assays Protocol
(§2) KM12 wild type colon carcinoma cell line harboring the TPM3-NTRK1 fusion protein was obtained from the National Cancer Institute (NCI). This line has been previously shown to be dependent upon the NTRK activity derived from the NTRK fusion protein for growth and survival. […] Cells were first plated in 384-well plates at 1000 cells/well in complete media (10% FBS and 1% pen/strep) and incubated overnight at 37° C. Cells were then dosed with test articles at varying concentrations using the Bravo liquid handling system. […] Each compound was run in duplicate per plate. […] 72 hr after dosing, assay plates were developed using CellTiter-Glo (Promega) and resultant luminescence was read on the Envision plate reader. IC50 determinations were calculated using a 4-parameter curve fitting algorithm
For orientation: Cellular ATP, detected with luciferase, serves as a proxy for viable cell number.
As to `O=C(NCc1cc(F)ccc1F)c1n[nH]c2ncnc(N[C@@H]3CC[C@@H](F)[C@H]3O)c12` (relative stereo) [Compound 19], the negative-log IC50 (pIC50) (as a rule, the negative decadic logarithm of the IC50, by convention in mol/L) was less than 6.00.
On the same count and under the same terms, then `O=C(NCc1cc(F)ccc1F)c1n[nH]c2ncnc(N[C@@H]3CCC[C@H]3O)c12` [Compound 1], with 7.00 to 8.00.
Same read-out and setting: in the case of `Cc1ccc(F)cc1CNC(=O)c1n[nH]c2ncnc(N[C@@H]3CC[C@@H](O)[C@H]3O)c12` [Compound 2] it was 6.00 to 7.00.
On the same count and under the same terms, then `O=C(NCc1cc(F)ccc1F)c1n[nH]c2ncnc(N[C@@H]3[C@H]4C[C@H]4C[C@H]3O)c12` [Compound 3], with less than 6.00.
For the compound `O=C(NCc1cc(F)ccc1F)c1n[nH]c2ncnc(N[C@@H]3C[C@H]4C[C@H]4[C@H]3O)c12` [Compound 4], the pIC50 is less than 6.00.
`CN(Cc1cncc(F)c1)C(=O)c1n[nH]c2ncnc(N[C@@H]3CC[C@@H](O)[C@H]3O)c12` [Compound 5] had a pIC50 of 6.00 to 7.00.
Still for that read-out and setting: in the case of `CN(Cc1cc(F)ccc1F)C(=O)c1n[nH]c2ncnc(N[C@@H]3CCC[C@H]3O)c12` [Compound 6] it was 7.00 to 8.00; in that of `C[C@@H](NC(=O)c1n[nH]c2ncnc(N[C@@H]3CCC[C@H]3O)c12)c1cc(F)ccc1F` [Compound 7], 7.00 to 8.00.
Still for that read-out and setting: then `O=C(NCc1cc(F)ccc1F)c1n[nH]c2ncnc(N[C@@H]3COCC[C@H]3O)c12` [Compound 8], with 6.00 to 7.00.
Still for that read-out and setting: then `O=C(NCc1cc(F)ccc1F)c1n[nH]c2ncnc(N[C@@H]3CCOC[C@H]3O)c12` [Compound 11], with 6.00 to 7.00; and `O=C(NCc1cc(F)ccc1F)c1n[nH]c2ncnc(NC3CC(O)CC3O)c12` (centres unmarked) [Compound 12], with less than 6.00.
Turning to `N#Cc1cc(F)cc(CNC(=O)c2n[nH]c3ncnc(N[C@@H]4CC[C@@H](O)[C@H]4O)c23)c1` [Compound 22], the negative logarithm of the IC50 (pIC50) was less than 6.00.
`COc1ccc(F)cc1CNC(=O)c1n[nH]c2ncnc(N[C@@H]3COCC[C@H]3O)c12` [Compound 24] had a negative logarithm of the IC50 (pIC50) of 6.00 to 7.00.
Still for that read-out and setting: then `O=C(NCc1cc(F)ccc1F)c1n[nH]c2ncnc(N[C@H]3[C@H](O)[C@H](O)[C@@H]4C[C@@H]43)c12` [Compound 25], with 6.00 to 7.00; and `CN(Cc1cc(F)ccc1F)C(=O)c1n[nH]c2ncnc(N[C@@H]3COCC[C@H]3O)c12` [Compound 29], with 7.00 to 8.00; and `C[C@@H](NC(=O)c1n[nH]c2ncnc(N[C@@H]3COCC[C@H]3O)c12)c1cc(F)ccc1F` [Compound 30], with 6.00 to 7.00.
The same measure, in the same setting: in the case of `O=C(NCc1cc(F)ccc1F)c1n[nH]c2ncnc(N[C@@H]3CCC[C@@H](O)[C@H]3O)c12` [Compound 32] it was 6.00 to 7.00; in that of `O=C(NCc1cc(F)ccc1Cl)c1n[nH]c2ncnc(N[C@@H]3CC[C@@H](O)[C@H]3O)c12` [Compound 36], 6.00 to 7.00; in that of `[2H]C([2H])([2H])N(Cc1cc(F)ccc1F)C(=O)c1n[nH]c2ncnc(N[C@@H]3COCC[C@H]3O)c12` [Compound 39], 7.00 to 8.00.

Still in this test, the particulars now being: Homo sapiens, KM12; G595R mutant NTRK fusion cells.
Turning to `C[C@@H](Oc1cc(-c2cnn(C3CCNCC3)c2)cnc1N)c1c(Cl)ccc(F)c1Cl` [Crizotinib, crizotinib, reference compound], the concentration for 50% growth inhibition (GI50) (in general, the concentration giving 50% growth inhibition) stood at 9000 nM.

For another test, the system named is KM12 wild type colon carcinoma cell line harboring the TPM3-NTRK1 fusion protein. Description: NTRK wild type cellular assay (CellTiter-Glo growth inhibition). It counts as cell-based. To be noted: Homo sapiens, KM12, 72 h, 72 hr, CellTiter-Glo; read-out: KM12 (WT) IC50. As for the experimental part: as §1, §2
As to `O=C(NCc1cc(F)ccc1F)c1n[nH]c2ncnc(N[C@@H]3CC[C@@H](F)[C@H]3O)c12` (relative stereo) [Compound 19], the pIC50 is less than 6.00.
On the same count and under the same terms, then `O=C(NCc1cc(F)ccc1F)c1n[nH]c2ncnc(N[C@@H]3CCC[C@H]3O)c12` [Compound 1], with 7.00 to 8.00.
The same measure, in the same setting: then `Cc1ccc(F)cc1CNC(=O)c1n[nH]c2ncnc(N[C@@H]3CC[C@@H](O)[C@H]3O)c12` [Compound 2], with 6.00 to 7.00; and `O=C(NCc1cc(F)ccc1F)c1n[nH]c2ncnc(N[C@@H]3[C@H]4C[C@H]4C[C@H]3O)c12` [Compound 3], with less than 6.00; and `O=C(NCc1cc(F)ccc1F)c1n[nH]c2ncnc(N[C@@H]3C[C@H]4C[C@H]4[C@H]3O)c12` [Compound 4], with less than 6.00.
Take `CN(Cc1cncc(F)c1)C(=O)c1n[nH]c2ncnc(N[C@@H]3CC[C@@H](O)[C@H]3O)c12` [Compound 5]: the pIC50 is 6.00 to 7.00.
Turning to `CN(Cc1cc(F)ccc1F)C(=O)c1n[nH]c2ncnc(N[C@@H]3CCC[C@H]3O)c12` [Compound 6], the pIC50 was 7.00 to 8.00.
Same read-out and setting: in the case of `C[C@@H](NC(=O)c1n[nH]c2ncnc(N[C@@H]3CCC[C@H]3O)c12)c1cc(F)ccc1F` [Compound 7] it was 7.00 to 8.00; in that of `O=C(NCc1cc(F)ccc1F)c1n[nH]c2ncnc(N[C@@H]3COCC[C@H]3O)c12` [Compound 8], 7.00 to 8.00.
With `O=C(NCc1cc(F)ccc1F)c1n[nH]c2ncnc(N[C@@H]3CCOC[C@H]3O)c12` [Compound 11], the pIC50 is 6.00 to 7.00.
On the same count and under the same terms, then `O=C(NCc1cc(F)ccc1F)c1n[nH]c2ncnc(NC3CC(O)CC3O)c12` (centres unmarked) [Compound 12], with 6.00 to 7.00; and `N#Cc1cc(F)cc(CNC(=O)c2n[nH]c3ncnc(N[C@@H]4CC[C@@H](O)[C@H]4O)c23)c1` [Compound 22], with less than 6.00.
The same measure, in the same setting: in the case of `COc1ccc(F)cc1CNC(=O)c1n[nH]c2ncnc(N[C@@H]3COCC[C@H]3O)c12` [Compound 24] it was 6.00 to 7.00; in that of `O=C(NCc1cc(F)ccc1F)c1n[nH]c2ncnc(N[C@H]3[C@H](O)[C@H](O)[C@@H]4C[C@@H]43)c12` [Compound 25], 7.00 to 8.00.
On to `CN(Cc1cc(F)ccc1F)C(=O)c1n[nH]c2ncnc(N[C@@H]3COCC[C@H]3O)c12` [Compound 29], for which the negative-log IC50 (pIC50) was 7.00 to 8.00.
The same measure, in the same setting: in the case of `C[C@@H](NC(=O)c1n[nH]c2ncnc(N[C@@H]3COCC[C@H]3O)c12)c1cc(F)ccc1F` [Compound 30] it was 7.00 to 8.00; in that of `O=C(NCc1cc(F)ccc1F)c1n[nH]c2ncnc(N[C@@H]3CCC[C@@H](O)[C@H]3O)c12` [Compound 32], 6.00 to 7.00; in that of `O=C(NCc1cc(F)ccc1Cl)c1n[nH]c2ncnc(N[C@@H]3CC[C@@H](O)[C@H]3O)c12` [Compound 36], 6.00 to 7.00.
Same read-out and setting: then `[2H]C([2H])([2H])N(Cc1cc(F)ccc1F)C(=O)c1n[nH]c2ncnc(N[C@@H]3COCC[C@H]3O)c12` [Compound 39], with 7.00 to 8.00.

The test is the same for the next values; noted with them: Homo sapiens, KM12; wild-type NTRK fusion cells; read-out: NTRK wt Cellular GI50.
In the case of `C[C@@H](Oc1cc(-c2cnn(C3CCNCC3)c2)cnc1N)c1c(Cl)ccc(F)c1Cl` [Crizotinib, crizotinib, reference compound], the concentration for 50% growth inhibition (GI50) was found to be 87 nM.

In a further test the target is T1, wild type NTRK1 enzyme (Homo sapiens, UniProt P04629).
T1 construct: purchased BPS Bioscience 40280
T1 sequence (P04629 440-796 limits assumed): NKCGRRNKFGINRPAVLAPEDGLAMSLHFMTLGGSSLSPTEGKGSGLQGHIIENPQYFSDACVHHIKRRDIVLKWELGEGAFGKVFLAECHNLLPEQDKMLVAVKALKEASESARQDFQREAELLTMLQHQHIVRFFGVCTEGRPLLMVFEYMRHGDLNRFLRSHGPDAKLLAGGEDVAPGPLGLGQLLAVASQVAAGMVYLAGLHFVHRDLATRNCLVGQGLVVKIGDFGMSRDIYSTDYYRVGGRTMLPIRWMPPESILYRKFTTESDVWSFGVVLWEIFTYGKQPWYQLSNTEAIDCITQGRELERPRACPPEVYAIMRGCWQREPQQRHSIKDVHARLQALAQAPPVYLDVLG
The test can be described thus: NTRK1 Wild Type Assay at 1 mM ATP. To be noted: 1 mM ATP; read-out: Enz NTRK1 IC50. Type of test: biochemical. The method, then:
NTRK1 Wild Type Assay at 1 mM ATP
The reaction was stopped by the addition of 70 μL of Stop buffer (100 mM HEPES pH 7.5, 0.015% Brij 35, 35 mM EDTA and 0.2% of Coating Reagent 3 (Caliper Lifesciences)). The plate was then read on a Caliper EZReader 2 (protocol settings: −1.7 psi, upstream voltage −500, downstream voltage −3000, post sample sip 35s).
As to `O=C(NCc1cc(F)ccc1F)c1n[nH]c2ncnc(N[C@@H]3CC[C@@H](F)[C@H]3O)c12` (relative stereo) [Compound 19], the pIC50 is less than 6.00.
Same read-out and setting: in the case of `O=C(NCc1cc(F)ccc1F)c1n[nH]c2ncnc(N[C@@H]3CCC[C@H]3O)c12` [Compound 1] it was 7.00 to 8.00; in that of `Cc1ccc(F)cc1CNC(=O)c1n[nH]c2ncnc(N[C@@H]3CC[C@@H](O)[C@H]3O)c12` [Compound 2], 6.00 to 7.00; in that of `O=C(NCc1cc(F)ccc1F)c1n[nH]c2ncnc(N[C@@H]3[C@H]4C[C@H]4C[C@H]3O)c12` [Compound 3], less than 6.00.
For the compound `O=C(NCc1cc(F)ccc1F)c1n[nH]c2ncnc(N[C@@H]3C[C@H]4C[C@H]4[C@H]3O)c12` [Compound 4], the negative-log IC50 (pIC50) was 6.00 to 7.00.
As for `CN(Cc1cncc(F)c1)C(=O)c1n[nH]c2ncnc(N[C@@H]3CC[C@@H](O)[C@H]3O)c12` [Compound 5], the pIC50 is 6.00 to 7.00.
On the same count and under the same terms, in the case of `CN(Cc1cc(F)ccc1F)C(=O)c1n[nH]c2ncnc(N[C@@H]3CCC[C@H]3O)c12` [Compound 6] it was greater than 8.00.
Turning to `C[C@@H](NC(=O)c1n[nH]c2ncnc(N[C@@H]3CCC[C@H]3O)c12)c1cc(F)ccc1F` [Compound 7], the pIC50 was 7.00 to 8.00.
The same measure, in the same setting: then `O=C(NCc1cc(F)ccc1F)c1n[nH]c2ncnc(N[C@@H]3COCC[C@H]3O)c12` [Compound 8], with 7.00 to 8.00; and `O=C(NCc1cc(F)ccc1F)c1n[nH]c2ncnc(N[C@@H]3CCOC[C@H]3O)c12` [Compound 11], with 6.00 to 7.00.
Still for that read-out and setting: in the case of `O=C(NCc1cc(F)ccc1F)c1n[nH]c2ncnc(NC3CC(O)CC3O)c12` (centres unmarked) [Compound 12] it was 6.00 to 7.00; in that of `N#Cc1cc(F)cc(CNC(=O)c2n[nH]c3ncnc(N[C@@H]4CC[C@@H](O)[C@H]4O)c23)c1` [Compound 22], 6.00 to 7.00; in that of `COc1ccc(F)cc1CNC(=O)c1n[nH]c2ncnc(N[C@@H]3COCC[C@H]3O)c12` [Compound 24], 7.00 to 8.00.
Same read-out and setting: in the case of `O=C(NCc1cc(F)ccc1F)c1n[nH]c2ncnc(N[C@H]3[C@H](O)[C@H](O)[C@@H]4C[C@@H]43)c12` [Compound 25] it was 7.00 to 8.00.
Consider `CN(Cc1cc(F)ccc1F)C(=O)c1n[nH]c2ncnc(N[C@@H]3COCC[C@H]3O)c12` [Compound 29], for which the pIC50 is greater than 8.00.
As for `C[C@@H](NC(=O)c1n[nH]c2ncnc(N[C@@H]3COCC[C@H]3O)c12)c1cc(F)ccc1F` [Compound 30], the pIC50 is 6.00 to 7.00.
Same read-out and setting: then `O=C(NCc1cc(F)ccc1F)c1n[nH]c2ncnc(N[C@@H]3CCC[C@@H](O)[C@H]3O)c12` [Compound 32], with 7.00 to 8.00.
The same measure, in the same setting: then `O=C(NCc1cc(F)ccc1Cl)c1n[nH]c2ncnc(N[C@@H]3CC[C@@H](O)[C@H]3O)c12` [Compound 36], with 7.00 to 8.00; and `[2H]C([2H])([2H])N(Cc1cc(F)ccc1F)C(=O)c1n[nH]c2ncnc(N[C@@H]3COCC[C@H]3O)c12` [Compound 39], with greater than 8.00.
